Results taken from patent US20260258397A1, “REAGENTS AND SYSTEMS FOR […]” (priority 2023, published 2026).
Where “and” joins values, the source holds several entries; their conditions need not be identical. Identical values can stand only once. Like-named read-outs stand apart in the source and are kept apart here.

Assays:
[1] = tested on: PYR1 mutant receptors (ligand-dependent binding to HAB1); test: Yeast two-hybrid screens and optimization for organophosphate sensors; format: cell-based, Arabidopsis; settings: after four rounds of recombination-based mutagenesis (PYR1^DIAZI, PYR1^PIRI)
Protocol: Surviving cells were collected and used in subsequent positive selections for ligand-responsive receptors on SD,-Leu,-Trp,-Ura media supplemented with a specific test chemical (100 μM) for responsiveness to any of the 10-member panel of organophosphate compounds: diazinon, pirimiphos-methyl, azinphos-ethyl, dimethoate, chlorfenvinphos, disulfoton, parathion-methyl, bromophos-methyl, malathion, and monocrotophos; all compounds were purchased form (Sigma-Aldrich). Isolated colonies were tested by regrowth on ligand-containing media and by dose response using X-gal staining and Sanger sequenced (see FIG. 13a-d).
Recombination-based mutagenesis of hit receptors was used to generate subsequent molecular diversity for selection-based optimization experiments, using the same general strategy across all scaffolds utilized. […] The resulting shuffled DNA fragments were cloned into pBD, transformed into E. coli, colonies collected, and plasmids extracted.

PYR1^DIAZI = target: T1, PYR1^DIAZI (Arabidopsis thaliana, UniProt O49686, A160V/E8G/F108Y/F159G/L87M/M158V/V81Y); test: cell-based; settings: for Bottom: fit bottom of GFP fluorescence response; for Top: fit top of GFP fluorescence response
T1 construct: expressed in transfected cells; host or cells: S. cerevisiae (2µ plasmid)
T1 sequence (O49686 1-191 E8G/V81Y/L87M/F108Y/M158V/F159G/A160V): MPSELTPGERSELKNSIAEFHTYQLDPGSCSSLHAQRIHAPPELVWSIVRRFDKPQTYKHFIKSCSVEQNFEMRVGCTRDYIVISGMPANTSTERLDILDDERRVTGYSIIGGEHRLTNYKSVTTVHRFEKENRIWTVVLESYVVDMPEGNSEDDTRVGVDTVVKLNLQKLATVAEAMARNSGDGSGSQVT
T1 sequence (Q9CAJ0 178-511 partner): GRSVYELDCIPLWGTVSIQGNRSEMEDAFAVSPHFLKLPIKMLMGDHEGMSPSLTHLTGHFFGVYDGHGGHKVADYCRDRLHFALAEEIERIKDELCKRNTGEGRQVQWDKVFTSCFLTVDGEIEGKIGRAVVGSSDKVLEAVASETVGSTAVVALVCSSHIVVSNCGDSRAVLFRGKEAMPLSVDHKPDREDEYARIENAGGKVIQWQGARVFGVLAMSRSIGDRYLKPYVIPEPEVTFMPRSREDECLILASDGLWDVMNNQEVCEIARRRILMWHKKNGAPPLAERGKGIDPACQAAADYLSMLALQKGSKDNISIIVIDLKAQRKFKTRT
From the text: (§1) PYR1 variants were used to drive gene expression in an inducible genetic circuit by fusing a zinc finger DNA binding domain (Z4^32) to the N-terminus of PYR1, and the VP64 activation domain 33 to the N-terminus of ΔN-HAB1. The SV40 nuclear localization signal was also fused to the N-terminus of PYR1. A single 2u plasmid was used to express SV40-Z4DBD-PYR1 and VP64-HAB1, while the GFP expression cassette (Z44-CYCcore-GFP-CYC 1term) was integrated at the YPRCΔ15 site on chromosome XVI. GFP fluorescence induced by each circuit was measured 12 h after ligand addition to 1 mL cultures, 30° C. Fluorescence was measured by flow cytometry. Briefly, 50 μL of resuspended cells were transferred to a 96-well plate for analysis. The fluorescence intensity of each cell was measured using a BD Accuri C6 flow cytometer equipped with auto-loading. The forward scatter, side scatter, and GFP fluorescence (Ex/Em 488/533 nm) were recorded for a minimum of 10,000 events.
(§2) Transformed yeast cells were acquired by first inoculating 5 mL of liquid media and incubating in a shaker incubator overnight at 30° C. Cells from the overnight culture were then used to inoculate a 50 mL culture with an initial cell density of 5×10^6 cells/mL. This culture was grown at 30° C. with 200 rpm shaking until ~2×10^7 cells/mL were produced, approximately 3 to 5 hours. Cells were harvested by centrifugation at 4000 rpm for 5 min, washed with 25 mL sterile, deionized water, resuspended in 1 mL of 100 mM LiAc, and transferred to a 1.5 mL tube, producing a cell suspension with approximately 10^9 cells/mL. The cell suspension was briefly mixed by vortexing and 100 μL was transferred into a clean 1.5 mL tube for each transformation. Cells were pelleted at 13000 rpm for 15 sec and the supernatant was removed. A transformation mixture of 240 μL PEG (50% w/v), 36 μL 1.0 M LiAc, 50 μL salmon sperm DNA (2.0 mg/ml), plasmid, and sterile water were added to the cell pellet and mixed by vortexing for 1 min (total volume of 360 μL). The mixed transformation solution was then heat shocked at 42° C. for 40 min. Post heat-shock, cells were recovered by centrifugation at 8000 rpm for 30 sec. Cells resuspended in 400 μL sterile water were plated on appropriate selection media, in this case agar-SD media without uracil. Plates were incubated at 30° C. until mature colonies were formed.
(§3) Three single transformants were picked from selection plates, inoculated in 2 mL of SD-Ura containing 2% glucose in 14 mL culture tubes. After 24 hours of growth at 30° C. in a shaker incubator (200 rpm), the OD600 of each sample was measured and cultures were back diluted to OD600=0.2 in fresh SD-Ura, the total volume of diluted culture was 9 mL. Each 9 mL culture was separated into 8 unique cultures by transferring 1 mL into 8 different wells of a 96 deep-well plate. Each well was used to evaluate the effect of a specific concentration of ligand. After all the cultures were transferred, 1 μL of stock ligand solution (each stock varying in concentration) was added to each well. The plate was sealed with an air-breathable polymer film and cultured with 1000 rpm shaking at 30° C. for 12 hours. Shaker humidity was maintained at 90%. Cells were harvested by centrifuge at 5000 g for 10 min, and after discarding the supernatant, the cells were suspended in 1 mL PBS buffer and centrifuged at 5000 g for 10 min. The cells were washed with 1 mL PBS buffer twice and resuspended in 1 mL DI water for flow cytometry analysis. For flow cytometry analysis, 50 μL of resuspended cells were transferred to a 96-well plate with flat bottom, adding DI water up to final volume 200 μL. The fluorescence intensity of cells within each sample was measured using a BD Accuri C6 flow cytometer equipped with auto-loading from 96 well plates. The forward scatter, side scatter, and GFP fluorescence (Ex/Em 488/533 nm) were recorded for a minimum of 10,000 events.

PYR1^PIRI = target: T2, PYR1^PIRI (Arabidopsis thaliana, UniProt O49686, A160T/E130G/F159T/K59R/N119S/S122Q/S92M/V174A); test: cell-based; settings: for Bottom: fit bottom of GFP fluorescence response; for Top: fit top of GFP fluorescence response
T2 construct: expressed in transfected cells; host or cells: S. cerevisiae (2µ plasmid)
T2 sequence (O49686 1-191 K59R/S92M/N119S/S122Q/E130G/F159T/A160T/V174A): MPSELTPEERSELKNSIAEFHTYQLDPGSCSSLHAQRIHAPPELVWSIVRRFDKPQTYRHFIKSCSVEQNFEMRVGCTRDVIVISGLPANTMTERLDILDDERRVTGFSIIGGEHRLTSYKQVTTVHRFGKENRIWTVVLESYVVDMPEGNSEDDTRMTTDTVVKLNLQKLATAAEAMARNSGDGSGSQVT
T2 sequence (Q9CAJ0 178-511 partner): T1 sequence (Q9CAJ0 178-511 partner)
From the text: as §1, §2, §3

HAB1 = test: Y2H X-gal staining of evolved sensors: ligand responsiveness and cross reaction; format: cell-based, Arabidopsis; settings: ligands WIN 55,212-2, 4F-MDMB-BUTINACA, AB-PINACA, JWH-072; PYR1^JWH-072 to low μM WIN 55,212-2, PYR1^4F to low μM AB-PINACA
Protocol: High-affinity sensors were tested for cross reaction using both Y2H and in vitro PP2C assays. […] Similar methods were used to characterize PYR1^PIRI and PYR1^WIN sensor selectivity and sensitivity.
The PYL2 coding sequence cloned in the Y2H pBD vector was used as template to incorporate the corresponding PYR1^WIN and PYR1^4F homologous residues via site directed mutagenesis using the QuikChange Lightning Multi Site-Directed mutagenesis kit (Agilent Technologies). Resulting clones PYL2^WIN (K64Q, F165A, V1661) and PYL2^4F (H119Q, Y124G, F165V, V166G) were sequence confirmed and incorporated into MAV99 harboring pACT-HAB1 and tested for ligand activation using uracil-independent growth and X-gal staining experiments. The same method was used to generate a PYL2^WIN version in a protein expression vector for crystallization studies.

PYR1^4F-M = target: T3, PYR1^4F-M (Arabidopsis thaliana, UniProt O49686, A160G/F159V/H115Q/H60P/N90S/Y120G); test: PYR1 ELISA-like plate assay, immobilized PYR1^4F-M with biotinylated ΔN-HAB1^T+; format: binding; settings: PYR1^4F-M ELISA-like format
T3 construct: made in house; host or cells: E. coli
T3 sequence (O49686 whole entry H60P/N90S/H115Q/Y120G/F159V/A160G, other chains not shown): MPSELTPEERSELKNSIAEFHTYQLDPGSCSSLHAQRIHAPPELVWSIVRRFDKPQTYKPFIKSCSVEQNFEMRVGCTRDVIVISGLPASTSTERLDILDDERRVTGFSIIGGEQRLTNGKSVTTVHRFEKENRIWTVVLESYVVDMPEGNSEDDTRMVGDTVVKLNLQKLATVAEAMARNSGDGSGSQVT
Protocol: PYR1 was immobilized overnight in clear plates, blocked with KPL milk diluent in buffer CBS ^17 (CBSM). All binding reactions were performed using CBSM. Detection was performed via binding a streptavidin-HRP conjugate to biotinylated ΔN-HAB1^T+ followed by incubation with a commercial TMB reagent. Lower limits of detection (LODs) were determined by linear regression of the response data in the low linear range using the formula LOD=3σy/m, where m is the slope of the response line and σy is the standard error of the y intercept using data combined from biological replicates.
Unconjugated 6×His-MBP-PYR1 variants were immobilized to Microlon clear plates (655081) using 100 μL of CBS without pH modification, at a protein concentration of 100 μg mL^−1, or 1.57 AM at 4° C. overnight. Wells assigned as no PYR controls received only CBS. Plates were sealed using Microseal B adhesive sealers (BioRad MSB-1001). […] The pellet was stored on ice until the blocked and washed plates were ready to receive the binding reactions. ΔN-HAB1^T+ was exchanged into CBSM with 1 mM DTT and 1 mM TCEP (CBSM++) using Zeba™ spin desalting columns (Thermo) were equilibrated with CBSM++. ΔN-HAB1^T+ was diluted to 10× the final binding reaction concentration and was immediately added to the pre-assembled assays in PCR plates, which were mixed by pipetting and transferred to the washed, blocked Microlon plates. […]

Molecule	ligand concentration to which optimized sensors respond [1] [nM]	Bottom (PYR1^DIAZI; PYR1-DIAZI)	Top (PYR1^DIAZI; PYR1-DIAZI)	Bottom (PYR1^PIRI; PYR1-PIRI)	Top (PYR1^PIRI; PYR1-PIRI)	further results
CCN(CC)c1nc(C)cc(OP(=S)(OC)OC)n1 [Pirimiphos, pirimiphos-methyl]	10	14673	88148	12745	105951	EC50 (PYR1^DIAZI): 17400 nM; EC50 (PYR1^PIRI): 20 nM
PYR1^JWH-072: PYR1 variant sensor for JWH-072; cannabinoid receptor sequence (MPSGLTPEERSELKNSIAEFHTYQLDPGSCSSLHAQRIHAPPELVWSIVRRFDKPQTYN)	–	–	–	–	–	cross-reactivity to off-target cannabinoid ligands (HAB1): modest cross-reactivity
CCOP(=S)(OCC)Oc1cc(C)nc(C(C)C)n1 [Diazinon, diazinon]	10	17196	103999	19123	109997	EC50 (PYR1^DIAZI; PYR1-DIAZI, no unit in table (text b82 gives the same values in nM), read-out: EC50): 43.1 nM; EC50 (PYR1^DIAZI; PYR1^DIAZI, yeast-transcription circuit, read-out: EC50): 43 nM; EC50 to diazinon lower than all other molecules profiled (PYR1^DIAZI; PYR1^DIAZI, selectivity versus panel of chemically similar organophosphates): greater than 10 fold; EC50 (PYR1^PIRI; PYR1-PIRI, no unit in table (text b82 gives the same values in nM/μM), read-out: EC50): 1010 nM; EC50 (PYR1^PIRI; PYR1^PIRI, yeast-transcription circuit, strongest off-target response, read-out: EC50): 1000 nM; EC50 higher than that with pirimiphos (PYR1^PIRI; PYR1^PIRI, off-target diazinon versus pirimiphos): 50 fold
COC(=O)[C@@H](NC(=O)c1nn(CCCCF)c2ccccc12)C(C)(C)C [4F-MDMB, 4F-MDMB-BUTINACA]	–	–	–	–	–	average LOD from two biological replicates (PYR1^4F-M): 6 nM and 2.2 ng/ml
